Measurements reported in patent US20200061076A1, “METHODS OF TREATING LEUKODYSTROPHIES” (Ramot at Tel-Aviv University Ltd., priority 2017, published 2020).

How the values were obtained:
[1] = system: WT astrocytes; test: Cell survival assay, Crystal violet staining, WT astrocytes; type: cell-based, mouse; conditions: 24 hours, untreated cells set to 100%
Procedure: (§1) Cells were seeded on 96-wells plate at a density of 5000 cells per well. Astrocytes were seeded following coating with 0.001% PDL.

[2] = system: Mut MEFs; test: Oxygen consumption (Seahorse XF Cell Mito Stress Test), MEFs; type: cell-based, mouse; conditions: 6 hours, normalized to biomass (FIGS. 7A-B)
Procedure: Mut MEFs were treated or not for 6 hours with the indicated concentrations of the indicated Sig-1R binders. Oxygen consumption was measured in a XF96 Extracellular Flux Analyzer using the Seahorse XF Cell Mito Stress Test Kit. The Basal respiration (FIG. 7A) and ATP-linked respiration (FIG. 7B) data were normalized to biomass as determined by Crystal Violet staining.
Mut MEFs were treated or not for 6 hours with the indicated concentrations of the indicated Sig-1R binders. Oxygen consumption was measured in a XF96 Extracellular Flux Analyzer using the Seahorse XF Cell Mito Stress Test Kit. The Basal respiration (FIG. 8A), ATP-linked respiration (FIG. 8B) and maximal respiration (FIG. 8C) data was normalized to mtDNA content as detailed in FIG. 2.
The data were normalized to cell number, obtained by Crystal Violet staining, or to mtDNA content.

[3] = system: Mut MEFs; test: TMRE staining, flow cytometry; type: cell-based, mouse; conditions: all concentrations, 6 hours (FIG. 5A)
Procedure: Mut MEFs were treated or untreated with the indicated concentrations of the indicated Sig-1R binders for 6 hours, stained by TMRE for 30 minutes and analyzed by flow cytometry. Shown are flow cytometry histograms and bar graphs representing % mean TMRE fluorescence intensity relative to non-treated WT cells of a representative experiment.
MEFs were seeded at a density of 4×10^4 cells per well in a 24-wells plate. 24 hours post-plating the cells were incubated with the tested compounds for additional 6 hours followed by staining with 200 nM Tetra-Methyl-Rhodamine-Ethyl esterperchlorate (TMRE) (Abcam) for 30 minutes at 37° C. Cells were removed by trypsinyzation, washed and resuspended in PBS. 5-10×10^3 cells were analyzed by Stratedigm S1000EXi cell sorter and FlowJo software (FLOWJO, LLC, Ashland, Oreg., USA).

[4] = system: Mut MEFs; test: Cell survival assay, Crystal violet staining, Mut MEFs; type: cell-based, mouse; conditions: for Survival (%) ± SEM Mut MEFs: 24 hours, untreated cells set to 100%
Procedure: as §1

[5] = system: Mut astrocytes; test: Cell survival assay, Crystal violet staining, Mut astrocytes; type: cell-based, mouse; conditions: 24 hours, untreated cells set to 100%
Procedure: as §1

[6] = system: Mut MEFs; test: mtDNA quantification (qPCR of mitochondrial 12S rRNA and nuclear 18S rRNA genes), MEFs; type: cell-based, mouse; conditions: 0.1 μM, 1 μM or 10 μM, 6 hours (FIG. 2)
Procedure: DNA extracted from WT and Mut MEFs that were treated or not for 6 hours with 0.1 μM, 1 μM or 10 μM of p8G5 (blue), Pre084 (known SIG-1R agonist, purple), pridopidine (known SIG-1R agonists, green) or NE-100 (known SIG-1R antagonist, yellow) was subjected to qPCR analysis of mitochondrial 12S rRNA and nuclear 18S rRNA genes.

[7] = system: Mut MEFs; test: Survival under Tunicamycin-induced ER stress, Crystal Violet, MEFs; conditions: Mut MEFs, 30 μM, 50 ng/ml Tunicamycin 22 hours (FIG. 20B)
Procedure: Mut MEFs were treated or not for 24 hours with the indicated concentrations of the indicated Sig-1R binders in the presence of 0.1 μg/ml Tunicamycin (Tun) during the last 22 hours. Following, the cells were washed, fixated and stained with Crystal Violet (CV) followed by measurement of absorbance at 570 nm. Shown is average % of CV staining relative to cells not treated with tunicamycin nor Sig-1R binder ±SEM of 3 independent experiments. *p<0.03.
Following, the cells were washed, fixated and stained with Crystal Violet and absorbance at 570 nm was measured. Data is presented relative to cells of the corresponding genotype not treated with p8G5 nor Tunicamycin. Shown is average % of CV staining ±SEM of 3 independent experiments.
Mut MEFs were treated or not for 24 hours with 10, 20 or 30 μM of the indicated Sig-1R binders in the presence of 50 ng/ml Tunicamycin (Tun) during the last 22 hours. Following, the cells were washed, fixated and stained with Crystal Violet (CV) followed by measurement of absorbance at 570 nm. Shown is % of CV staining relative to cells not treated with tunicamycin nor Sig-1R binder ±SEM of 3 independent experiments, *p<0.05.
Mut MEFs were incubated or not with the indicated concentrations of the indicated compounds for 2 hours followed by addition of 50 ng/ml Tunicamycin (Tun) for additional 22 hours, stained with Crystal Violet followed by measurement of absorbance at 570 nm. Shown is average normalized to Tun-treated cells without any compound ±SEM of 3 independent experiments. * not significant; ** p<0.02; *** all values p<0.04.

[8] = system: Hedgehog signaling pathway; test: Luciferase activity assay in Shh-LIGHT2 cells (Gli1-controlled Firefly / constitutive Renilla); type: cell-based; conditions: absence of SAG, 24 hours (FIG. 11A)
Procedure: Following lysis, luminescence was measured using the Dual Luciferase assay kit (Promega) followed by Firefly/Renilla luciferase ratio calculation for each treatment. Shown is average Firefly/Renilla luciferase activity ±SD of 3 independent experiments. *p<0.04. […] RNA was extracted from brains of P18 and P21 Mut and WT mice. cDNA was prepared by reverse transcription and subjected to qPCR using primers specific to Gli1 and GAPDH (SEQ ID NOs: 1-2 and 3-4, respectively). Relative quantity (RQ) was calculated by the ΔΔCt method. * p<0.02 [vs control (FIG. 11A) or vs SAG treated cells (FIG. 11B)].
Shh-LIGHT2 cells were seeded at a density of 10,000 cells per well in a 96-wells plate in growing medium. 24 hours post-plating the cells were incubated for additional 24 hours with the tested compounds in low serum media (0.5%) without G418 and Zeocin. Following lysis, Firefly and Renilla luminescence was measured using the Dual Luciferase assay kit (Promega) and a Veritas microplate luminometer (Turner Biosystems).
To test if p8C10 (H5), p8G7 (H9) and p9E6 (H15) compounds that were identified in the screen indeed affect Hedgehog signaling, SHH-lightII cells which stably express an inducible Firefly-Luciferase reporter gene under the control of Gli1 (a read-out of Hedgehog activation) and constitutive Renilla-Luciferase for normalization purposes (Taipale et al. 2000) were used. […] Therefore, p9E6 was identified as an agonist. SHH activation is required for the first steps of oligodendrocyte differentiation, while a subsequent decrease in Hedgehog activity is needed for complete differentiation and myelin production (Bouslama-Oueghlani et al. 2012) and re-myelination (Samanta et al. 2015).

[9] = system: Mut MEFs; test: JC1 staining of intact and damaged mitochondria (mitochondrial membrane potential); type: cell-based, mouse; conditions: Mut MEFs, 10 μM, 24 hours (FIG. 14C)
Procedure: Mut MEFs were treated or not for 6 hours with the indicated concentrations of p8G5 (blue), pre084 (purple), or NE-100 (yellow), washed and stained with Hoechst and JC1 for 30 minutes followed by image acquisition using In-Cell-Analyzer-2000. Shown is the % of red/green JC1 integrated intensity per cell relative to that in untreated WT cells of 2-4 independent experiments.
Following, the cells were washed, stained with Hoechst and JC-1 fluorescent dyes for 30 minutes, and subjected to image acquisition using In-Cell-Analyzer-2000. Shown is cellular content of damaged mitochondria (JC1 green channel, red bars), intact mitochondria (JC1 red channel, green bars) and damaged to intact mitochondria ratio (blue bars). Values of control (vehicle treated) cells was set to 100%.
Mut MEFs were treated with the indicated compounds at 10 μM for 24 hours followed by staining with fluorogenic dyes and image-based single-cell analysis. Shown is average effect on ROS level from at least 3-independent experiments ±SEM. […] Mut MEFs were incubated or not for 24 hours with 10 μM of the indicated compound, washed and stained with Crystal Violet. […] Mut MEFs were incubated or not for 24 hours with 10 μM of the indicated compound, washed and stained with JC1 and Hoechst followed by image-based single-cell analysis. Values of untreated cells were set as 100%. Shown is average of at least 3 independent experiments for each parameter compared to its matching control ±SEM. * p<0.05. Putative targets are indicated.
Mut MEFs were incubated or not for 24 hours with 10 μM of the indicated compounds, washed and stained with Hoechst and JC1 followed by image-based single-cell analysis. […] Mut MEFs were incubated or not with the indicated concentrations of the indicated compounds for 2 hours followed by addition of 50 ng/ml Tunicamycin (Tun) for additional 22 hours, stained with Crystal Violet followed by measurement of absorbance at 570 nm.
MEFs were seeded on 1% gelatin-coated 96-wells plate at a density of 5000 cells per well. 24 hours post-plating the cells were incubated with the tested compounds for additional 24 hours. Several DMSO-treated cells (control) were included in each plate at different locations. Following, the cells were stained by addition of fluorogenic dyes for further 30 minutes incubation at 37° C. […] CellROX was used together with Hoechst and CFSE; JC1 was used together with Hoechst. Cells were washed with Hank's balanced salt solution (HBSS) which was used for images acquisition using IN Cell Analyzer 2000 (GE Healthcare, Pitsburgh, Pa., USA). IN Cell Developer Toolbox 1.9.1 software (GE Healthcare) was used for analysis which included cells segmentation using Hoechst and/or CFSE signals. For analysis of JC1 staining, integrated intensity of green and red emissions were used for detection of damaged and intact mitochondria, respectively.

CCCN(CCC)CCc1ccc(OC)c(OCCc2ccccc2)c1 [NE100]
Survival (%) ± SEM WT astrocytes ([1]; 0.1 μM): 98 ± 1.8%
Survival (%) ± SEM WT astrocytes ([1]; 1 μM): 86 ± 1.1%
Survival (%) ± SEM WT astrocytes ([1]; 10 μM): 79 ± 2.2%
basal respiration and ATP-linked respiration per cell (OCR) [2]: negative effect
TMRE staining (mitochondrial membrane potential) [3]: negative effect on TMRE staining
Survival (%) ± SEM Mut MEFs ([4]; 0.1 μM): 99 ± 2.1%
Survival (%) ± SEM Mut MEFs ([4]; 1 μM): 98 ± 2.2%
Survival (%) ± SEM Mut MEFs ([4]; 10 μM): 88 ± 3.5%
Survival (%) ± SEM Mut astrocytes ([5]; 1 μM): 94 ± 4.7%
Survival (%) ± SEM Mut astrocytes ([5]; 10 μM): 82 ± 4.3%
Survival (%) ± SEM Mut astrocytes ([5]; 30 μM): 65 ± 2.2%
mitochondrial content in Mut MEFs [6]: increased mitochondrial content in a dose dependent manner

COc1cccc(OCCCCCN2CCOCC2)c1 [Hit H8-6, 4-[5-(3-methoxyphenoxy)pentyl]morpholine]
Survival (%) ± SEM Mut MEFs ([4]; 10 μM): 97 ± 5.1%
Survival (%) ± SEM Mut MEFs ([4]; 20 μM): 92 ± 1.1%
Survival (%) ± SEM Mut MEFs ([4]; 30 μM): 93 ± 5.2%
cell survival following Tun-induced cell death [7]: most potent effect

COc1ccc(OC)c(N=Nc2nc3ccccc3n2C)c1 [Hit H16, 2-[(2,5-dimethoxyphenyl)diazenyl]-1-methyl-1H-benzimidazole]
cell viability / toxicity (crystal violet) ([4]; Mut MEFs, 10 μM, 24 hours (FIG. 14B)): significant decrease in cell viability

CNC1CCC(N(Cc2cccc(-c3ccncc3)c2)C(=O)c2sc3ccccc3c2Cl)CC1 (stereo not shown) [SAG, reference compound]
Survival (%) ± SEM Mut MEFs ([4]; 0.01 μM): 98 ± 2.1%
Survival (%) ± SEM Mut MEFs ([4]; 0.05 μM): 92 ± 3.2%
Survival (%) ± SEM Mut MEFs ([4]; 0.1 μM): 95 ± 2.1%
Survival (%) ± SEM Mut MEFs ([4]; 1 μM): 68 ± 2.7%

C=CCn1c(C=Cc2ccccc2)nc2ccccc21 [Hit H15, 1-allyl-2-(2-phenylvinyl)-1H-benzimidazole]
Firefly/Renilla luciferase expression (Hedgehog activation) [8]: able to activate the Hedgehog signaling pathway
effect on mitochondrial health (JC1, intact and damaged mitochondria) [9]: significant beneficial effect on mitochondrial health

Cc1cccc(OCCCCCCN2CCOCC2)c1 [Hit H8-3, 4-[6-(3-methylphenoxy)hexyl]morpholine]
Survival (%) ± SEM Mut MEFs ([4]; 10 μM): 100 ± 7.2%
Survival (%) ± SEM Mut MEFs ([4]; 20 μM): 96 ± 4.1%
Survival (%) ± SEM Mut MEFs ([4]; 30 μM): 88 ± 4.5%

Cc1ccc(OCCCCCN2CCOCC2)cc1C [Hit H8-2, 4-[5-(3,4-dimethylphenoxy)pentyl]morpholine]
Survival (%) ± SEM Mut MEFs ([4]; 10 μM): 92 ± 4.2%
Survival (%) ± SEM Mut MEFs ([4]; 20 μM): 94 ± 8.8%
Survival (%) ± SEM Mut MEFs ([4]; 30 μM): 95 ± 13.1%
cell survival following Tun-induced cell death [7]: most potent effect

Cc1cc(-c2ccccc2)nc2cc(C(=O)N3C(C)CCCC3C)nn12 (stereo not shown) [Hit H17, 2-[(2,6-dimethyl-1-piperidinyl)carbonyl]-7-methyl-5-phenylpyrazolo[1,5-a]pyrimidine]
effect on mitochondrial health (JC1, intact and damaged mitochondria) [9]: significant beneficial effect on mitochondrial health
